Reference: patent US20250205225A1, “METHODS OF POTENTIATING TEMOZOLOMIDE ACTIVITY AGAINST GLIOBLASTOMA CELLS” (University of Cincinnati, priority 2022, published 2025)
Where two headings read alike, the source gives them in different places. Values belong to the molecule of their own block, whether it stands above or below them.

What was measured:
[1] = test system: G76 cells; test: Assessment of gamma-H2A.X (flow cytometry); type: cell-based, human; conditions: for γ-H2AX induction (DNA damage): single agent (TMZ up to 1 μM; LTZ 500 nM and 1 μM); for LTZ-mediated induction of γ-H2AX in the presence of estradiol: estradiol (250 pg/ml)
Protocol: (§1) Assessment of gamma-H2A.X: Induction of γH2A.X in G75 and G76 cells (lx 106) treated with LTZ, TMZ, and LTZ+TMZ (0-10 μM) in the presence and the absence of estradiol (250 pg/ml) was assessed using flow cytometric analysis. Based on initial assessment of the time course of γH2A.X induction, a 5 h treatment was used to capture maximal effect. Cell pellets were collected by centrifugation of the cells at 2,000×g for 5 minutes at room temperature. Cells were then washed with ice cold PBS, followed by addition of a 1:1 mixture of methanol and NP40 (300 μL) for fixation and permeabilization of the cells. Following centrifugation at 4° C. at 290×g, 100 μL of 1:250 dilution of the primary unconjugated antibody for gamma-H2A.X at room temperature were added to the cells. The cells were incubated with the primary antibody for 20 min and washed with 600 μL of 1:1 methanol and NP40 mixture. Secondary Per-CP conjugated antibody was added to the cells at a dilution of 1:1000 and incubated at room temperature in the dark for 20 minutes. Cells were washed again with 600 μL of 1:1 methanol and NP40 mixture, re-suspended in 1×PBS, and subjected to flow cytometric analysis with the excitation wavelength of 488 nm (Beckman CytoFlex flow cytometer). […] The scatter plots were analyzed using CytExpert version 2.3 to assess the percentage of cells positive for γH2A.X versus the isotype control.

[2] = test system: G75 cells; test: Assessment of gamma-H2A.X (flow cytometry); type: cell-based, human; conditions: for γ-H2AX induction (DNA damage): single agent (TMZ up to 1 μM; LTZ 500 nM and 1 μM); for LTZ-mediated induction of γ-H2AX in the presence of estradiol: estradiol (250 pg/ml)
Protocol: as §1

[3] = test system: G76 cells; test: Apoptosis induction, Caspase-Glo 3/7; type: cell-based, human; conditions: for EC50: Homo sapiens; for induction of apoptosis (caspase 3/7), in words: TMZ up to 5 μM
Protocol: (§2) Apoptosis induction assay using Caspase-Glo® 3/7 system: G75 and G76 cells were employed to assess the effects of LTZ, TMZ, and LTZ+TMZ combination treatment on induction of apoptosis through caspase 3/7 activation. Cells were seeded at a density of 1.5×10^4 cells per well in a translucent walled, clear bottom, 96-well plate. Promega Caspase-Glo® 3/7 Assay system was used to assess the caspase 3/7 levels in cells treated with LTZ, TMZ, LTZ (0.04 μM)+TMZ (0-5 μM), and vehicle (0.1% DMSO). Cells were treated for 24 h after plating. Caspase-Glo® 3/7 3D substrate and Caspase-Glo® 3/7 3D buffer was mixed to form a 10 mL reaction mixture and 100 μL of the mixture was added to each well. The reaction was allowed to proceed at room temperature in the dark for 30 minutes. The luminescence readings were carried out 24 h after the treatment using Synergy™ HTX Multi-Mode Microplate Reader. The experiment was repeated in presence of estradiol to assess the effect of estradiol on caspase induction in G75 and G76 cells.

[4] = test system: G75 cells; test: Apoptosis induction, Caspase-Glo 3/7; type: cell-based, human; conditions: for EC50: Homo sapiens; for induction of apoptosis (caspase 3/7), in words: TMZ up to 5 μM
Protocol: as §2

[5] = test system: patient-derived GBM lines (G76, BT-142, G75, G43); test: Cell viability assay (CyQuant LDH), all four lines; type: cell-based, human; conditions: for IC50: Homo sapiens, BT142, 72 h
Protocol: (§3) Cell viability Assay: The cytotoxic effects of TMZ, LTZ, and various combinations of the two agents were evaluated using the CyQuant™ Lactate Dehydrogenase (LDH) assay (ThermoFisher Scientific). This assay measures the release of LDH, a cytosolic enzyme, into the extracellular medium resulting from damage to the plasma membrane. Cells (1.4×10^4) were plated in 96 well plates in serum-free medium. Twenty-four hours after seeding, cells were treated with TMZ (0-100 μM), LTZ (0-2 μM), or TMZ (0-10 μM)+LTZ (0.04 μM). Dimethyl sulfoxide (0.1%) was used as a vehicle control. The effect of adding estradiol (250 pg/ml) on cell viability was also determined.

[6] = test system: G43 cells; test: Neurosphere growth inhibition; type: cell-based, human; conditions: for neurosphere diameter: 72 h, LTZ 40 nM, TMZ 1 μM, alone or combined, in mm
Protocol: (§4) Neurosphere Growth Inhibition: Since G43 and BT-142 cells form neurospheres in culture medium, the effects of LTZ and TMZ on the growth of the neurosphere. Cells (1×10^4) were plated and 24 hours later treated with LTZ (0-2 μM), TMZ (0-100 μM) or were also determined. Cells were treated with LTZ (0.04 μM)+TMZ (0-10 μM) for 72 h cells, with DMSO (0.1%) serving as vehicle control. Neurosphere dimensions were measured using Leica Stereomicroscope in bright field setting. The effect of addition of estradiol (250 pg/ml) on the neurosphere growth was also determined.

[7] = test system: BT-142 cells; test: Neurosphere growth inhibition; type: cell-based, human; conditions: for median neurosphere diameter: 72 h, LTZ 40 nM, TMZ 1 μM, alone or combined
Protocol: as §4

[8] = cited from earlier work
[9] = test system: BT-142 cells; test: Cell viability assay (CyQuant LDH); type: cell-based; conditions: Homo sapiens, BT142, 72 h, single agent, read-out: IC50 (cytotoxicity)
Protocol: as §3

[10] = test system: G75 cells; test: Cell viability assay (CyQuant LDH); type: cell-based; conditions: Homo sapiens, 72 h, single agent, read-out: IC50 (cytotoxicity)
Protocol: as §3

[11] = test system: G43 cells; test: Cell viability assay (CyQuant LDH); type: cell-based, human; conditions: 72 h, single agent, read-out: IC50 (cytotoxicity)
Protocol: as §3

[12] = test system: G76 cells; test: Cell viability assay (CyQuant LDH); type: cell-based, human; conditions: 72 h, single agent, read-out: IC50 (cytotoxicity)
Protocol: as §3

[13] = single agent, Emax model, read-out: EC50 for caspase 3/7 induction
[14] = LTZ 40 nM alone or combined with TMZ
[15] = with letrozole 40 nM, read-out: EC50 for caspase 3/7 induction by temozolomide in the presence of letrozole (40 nM)

EC50 [3, 13]: 1.8 ± 0.312 µM | EC50 [4, 13]: 5.07 ± 1.1 µM
Compound: N#Cc1ccc(C(c2ccc(C#N)cc2)n2cncn2)cc1 [LTZ, 4,4′-((1H-1,2,4-triazol-1-yl)methylene)dibenzonitrile]
γ-H2AX induction (DNA damage) ([1]; 5 h): considerably increased γ-H2AX levels | γ-H2AX induction (DNA damage) ([1]; 5 h, listed as Letrozole): caused DNA damage | LTZ-mediated induction of γ-H2AX in the presence of estradiol [1]: abrogated in the presence of estradiol | LTZ-mediated induction of γ-H2AX in the presence of estradiol ([1]; listed as letrozole): prevented letrozole-mediated DNA damage | γ-H2AX induction (DNA damage) ([2]; 5 h): considerably increased γ-H2AX levels | γ-H2AX induction (DNA damage) ([2]; 5 h, listed as Letrozole): caused DNA damage | LTZ-mediated induction of γ-H2AX in the presence of estradiol [2]: abrogated in the presence of estradiol | LTZ-mediated induction of γ-H2AX in the presence of estradiol ([2]; listed as letrozole): prevented letrozole-mediated DNA damage | letrozole-mediated induction of apoptosis in the presence of estradiol ([3]; estradiol present): prevented letrozole-mediated DNA damage and induction of apoptosis | induction of apoptosis (caspase 3/7), in words ([3]; single agent): very effective in inducing apoptosis in a concentration-dependent manner | letrozole-mediated induction of apoptosis in the presence of estradiol ([4]; estradiol present): prevented letrozole-mediated DNA damage and induction of apoptosis | induction of apoptosis (caspase 3/7), in words ([4]; single agent): very effective in inducing apoptosis in a concentration-dependent manner | IC50 ([5]; single agent, read-out: IC50 (cytotoxicity), range over the cell lines): 0.08 to 0.67 µM | letrozole effects in cell viability assay with estradiol added ([5]; estradiol (250 pg/ml) added to the culture media): completely abrogated the letrozole effects | neurosphere diameter [6]: 1.85±0.13 | neurosphere growth inhibition (in words) [6, 14]: minimally impacted neurosphere growth | letrozole effects in neurosphere growth inhibition assay with estradiol added ([6]; estradiol (250 pg/ml) added): completely abrogated the letrozole effects | median neurosphere diameter [7]: 1.1±0.077 mm | neurosphere growth inhibition (in words) [7, 14]: minimally impacted neurosphere growth | letrozole effects in neurosphere growth inhibition assay with estradiol added ([7]; estradiol (250 pg/ml) added): completely abrogated the letrozole effects

EC50 [3, 13]: 6.4 µM | EC50 [3, 15]: 1.8 µM | EC50 [4, 13]: 93.8 µM | EC50 [4, 15]: 5.1 µM | IC50 ([5]; with LTZ 40 nM, read-out: TMZ IC50 in the presence of LTZ (40 nM), range for all four cell lines): 0.16 to 0.69 µM
Compound: Cn1nnc2c(C(N)=O)ncn2c1=O [TMZ, 4-methyl-5-oxo-2,3,4,6,8-pentazabicyclo[4.3.0]nona-2,7,9-triene-9-carboxamide]
γ-H2AX induction (DNA damage), TMZ combined with LTZ ([1]; 5 h, LTZ 40 nM + TMZ 0.1 μM): significantly enhanced DNA damage by temozolomide | γ-H2AX induction (DNA damage) ([1]; 5 h): noticeable induction of γ-H2AX | γ-H2AX induction (DNA damage), TMZ combined with LTZ ([2]; 5 h, LTZ 40 nM + TMZ 0.1 μM): significantly enhanced DNA damage by temozolomide | γ-H2AX induction (DNA damage) ([2]; 5 h): not in G75 cells | induction of apoptosis (caspase 3/7), in words ([3]; single agent): induced apoptosis in G76 cells | TMZ-mediated apoptosis (caspase 3/7) with LTZ (40 nM) ([3]; with LTZ 40 nM): striking increase in TMZ-mediated apoptosis | induction of apoptosis (caspase 3/7), in words ([4]; single agent): not in G75 cells | TMZ-mediated apoptosis (caspase 3/7) with LTZ (40 nM) ([4]; with LTZ 40 nM): striking increase in TMZ-mediated apoptosis | peak plasma levels ([8]; doses of 100-200 mg/m^2, listed as temozolomide): 25 to 50 µM | partitioning of the drug from plasma to the brain interstitial fluid ([8]; intracerebral microdialysis, peritumoral): 13-17% | brain interstitial fluid (peritumoral) concentrations ([8]; intracerebral microdialysis, approximately): 3 to 8 µM | IC50 [9]: 15.3 µM | IC50 [10]: 107 µM | IC50 [11]: 165 µM | IC50 ([11]; Homo sapiens): 165 µM | IC50 [12]: 1.31 µM | IC50 ([12]; Homo sapiens): 1.3 µM | neurosphere diameter [6]: 1.6±0.085 | median neurosphere diameter [7]: 0.9±0.023 mm
